Experimental data taken from patent publication US20250152585A1, “PHARMACEUTICAL COMPOUND” (Duke Street Bio Limited, priority 2022, published 2025).
pIC50, pKd: −log10 of the molar value.

How the values were obtained:
[1] = molecular target: T1, N-terminally FLAG-tagged PARP2 (amino acids 1-583) (Homo sapiens, UniProt Q9UGN5); experiment: PARP2 probe displacement HTRF assay; type: binding; conditions: binned Kd, probe displacement HTRF
T1 construct: N-terminally FLAG-tagged PARP2 (amino acids 1-583)
T1 sequence (Q9UGN5 whole entry, the tested form may be a part): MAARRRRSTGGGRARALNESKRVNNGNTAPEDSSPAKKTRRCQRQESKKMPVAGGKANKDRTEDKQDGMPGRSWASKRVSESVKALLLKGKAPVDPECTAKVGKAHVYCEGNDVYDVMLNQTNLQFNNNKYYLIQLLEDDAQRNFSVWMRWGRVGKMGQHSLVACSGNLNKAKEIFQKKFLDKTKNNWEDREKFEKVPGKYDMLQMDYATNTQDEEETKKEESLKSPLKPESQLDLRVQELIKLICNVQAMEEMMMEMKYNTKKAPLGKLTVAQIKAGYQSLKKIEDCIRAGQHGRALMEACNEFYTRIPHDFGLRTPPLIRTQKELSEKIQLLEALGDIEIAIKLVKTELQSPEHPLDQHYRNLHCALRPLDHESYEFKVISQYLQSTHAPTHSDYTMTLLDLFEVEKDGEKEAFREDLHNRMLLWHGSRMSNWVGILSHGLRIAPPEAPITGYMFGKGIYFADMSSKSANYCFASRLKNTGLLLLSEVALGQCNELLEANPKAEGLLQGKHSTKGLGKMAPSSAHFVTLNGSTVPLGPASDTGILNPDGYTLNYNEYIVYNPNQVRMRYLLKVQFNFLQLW
Procedure: Data analysis was performed identical as for PARP1.

[2] = molecular target: T2, full length N-terminally FLAG-tagged PARP1 (Homo sapiens, UniProt P09874); experiment: PARP1 probe displacement HTRF assay; conditions: probe displacement HTRF; for Selectivity: PARP1 over PARP2, ratio Kd (PARP2)/Kd (PARP1); for pKd: read-out: PARP1 HTRF, binned Kd
T2 sequence (P09874 whole entry): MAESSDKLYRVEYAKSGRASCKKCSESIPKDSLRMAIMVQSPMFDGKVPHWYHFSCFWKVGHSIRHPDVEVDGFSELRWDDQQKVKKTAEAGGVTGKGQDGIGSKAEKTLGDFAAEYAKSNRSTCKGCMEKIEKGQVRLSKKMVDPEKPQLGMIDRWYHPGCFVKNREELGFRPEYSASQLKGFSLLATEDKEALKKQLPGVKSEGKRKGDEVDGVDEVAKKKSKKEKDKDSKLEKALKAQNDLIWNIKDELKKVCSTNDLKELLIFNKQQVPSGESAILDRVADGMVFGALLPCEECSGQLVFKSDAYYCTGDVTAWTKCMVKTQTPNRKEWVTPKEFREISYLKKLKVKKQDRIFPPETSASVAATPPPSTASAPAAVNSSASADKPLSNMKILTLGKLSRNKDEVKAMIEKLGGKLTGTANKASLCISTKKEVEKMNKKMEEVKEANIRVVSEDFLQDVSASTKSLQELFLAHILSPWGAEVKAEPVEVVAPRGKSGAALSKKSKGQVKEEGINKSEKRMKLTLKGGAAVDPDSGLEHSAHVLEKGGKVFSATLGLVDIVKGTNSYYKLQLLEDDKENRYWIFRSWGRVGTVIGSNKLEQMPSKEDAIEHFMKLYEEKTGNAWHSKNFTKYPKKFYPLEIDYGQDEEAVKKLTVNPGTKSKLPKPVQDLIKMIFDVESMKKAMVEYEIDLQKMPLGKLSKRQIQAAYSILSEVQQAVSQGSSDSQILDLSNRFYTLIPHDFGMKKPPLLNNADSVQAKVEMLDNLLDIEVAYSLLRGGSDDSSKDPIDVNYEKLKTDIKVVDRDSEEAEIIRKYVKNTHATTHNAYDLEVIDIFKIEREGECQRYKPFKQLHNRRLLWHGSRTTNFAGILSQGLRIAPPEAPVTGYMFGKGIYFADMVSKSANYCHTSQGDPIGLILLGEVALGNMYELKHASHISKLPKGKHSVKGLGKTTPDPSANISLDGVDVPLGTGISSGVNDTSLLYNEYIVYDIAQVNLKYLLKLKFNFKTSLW

[3] = molecular target: T2, full length N-terminally FLAG-tagged PARP1; experiment: PARP1 biochemical DELFIA assay (auto-PARylation); set-up: recombinant full length human N-terminally FLAG-tagged PARP1; conditions: binned IC50, biochemical auto-PARylation assay

| SMILES | pKd [1] | pKd [2] | pIC50 [3] | Selectivity [2] |
| --- | --- | --- | --- | --- |
| CNC(=O)c1cc(F)c(N2CCC(N3CCC(c4cc5ccc(F)cc5c(=O)[nH]4)C3)CC2)cn1 (racemic) [Compound 235rac] | 7.00 to 8.00 | > 8.00 | > 8.00 | + (+ indicates a value of 10 to less than 50) |
| CNC(=O)c1ncc(N2CCC(N3CCC(c4cc5cccc(F)c5c(=O)[nH]4)C3)CC2)c(C)n1 (racemic) [Compound 241rac] | 6.00 to 7.00 | > 8.00 | > 8.00 | +++ (+++ indicate a value of at least 100) |
| CCc1ccc(C2CCN(C3CCN(c4cnc(C(=O)NC)nc4Cl)CC3)C2)[nH]c1=O (racemic) [Compound 242rac] | 6.00 to 7.00 | > 8.00 | > 8.00 | ++ (++ indicates a value of 50 to less than 100) |
| CNC(=O)c1cc(Cl)c(N2CCC(N3CCC(c4cc5cccc(F)c5c(=O)[nH]4)C3)CC2)cn1 (racemic) [Compound 248rac] | 6.00 to 7.00 | > 8.00 | > 8.00 | +++ (+++ indicate a value of at least 100) |
| CNC(=O)c1cnc(N2CCC(N3CCC(c4cc5ccccc5c(=O)[nH]4)C3)CC2)s1 (racemic) [Compound 253rac] | < 5.00 | 7.00 to 8.00 | 7.00 to 8.00 | + (+ indicates a value of 10 to less than 50) |
| O=c1[nH]c(C2CCN(C3CCN(c4nccs4)CC3)C2)cc2ccccc12 (racemic) [Compound 254rac] | 5.00 to 6.00 | 6.00 to 7.00 | 7.00 to 8.00 | + (+ indicates a value of 10 to less than 50) |
| O=c1[nH]c(C2CCN(C3CCN(c4ccc(-c5nnn[nH]5)nc4)CC3)C2)nc2ccccc12 (racemic) [Compound 263rac] | 6.00 to 7.00 | 6.00 to 7.00 | 7.00 to 8.00 | − (− indicates a value of less than 10) |
| CCNC(=O)c1ccc(N2CCC(N3CCC(c4ccc(CC)c(=O)[nH]4)C3)CC2)c(F)n1 (racemic) [Compound 264rac] | 6.00 to 7.00 | > 8.00 | > 8.00 | +++ (+++ indicate a value of at least 100) |
| CNC(=O)c1ccc(N2CCC(N3CCC(c4cc5c(F)ccc(F)c5c(=O)[nH]4)C3)CC2)c(F)n1 (racemic) [Compound 268rac] | 6.00 to 7.00 | > 8.00 | > 8.00 | +++ (+++ indicate a value of at least 100) |
| Cc1n[nH]c(-c2ccc(N3CCC(N4CCC(c5nc6ccccc6c(=O)[nH]5)C4)CC3)cn2)n1 (racemic) [Compound 275rac] | 6.00 to 7.00 | > 8.00 | > 8.00 | + (+ indicates a value of 10 to less than 50) |
| CCc1ccc(C2CCN(C3CCN(c4ccc(C(=O)NC)c(F)c4)CC3)C2)[nH]c1=O (racemic) [Compound 282rac] | 6.00 to 7.00 | 7.00 to 8.00 | 7.00 to 8.00 | + (+ indicates a value of 10 to less than 50) |
| CNC(=O)c1cc(N2CCC(N3CCC(c4cc5ccccc5c(=O)[nH]4)C3)CC2)cs1 (racemic) [Compound 296rac] | 6.00 to 7.00 | > 8.00 | > 8.00 | + (+ indicates a value of 10 to less than 50) |
| O=c1[nH]c(C2CCN(C3CCN(c4nc5ccccc5[nH]4)CC3)C2)cc2ccccc12 (racemic) [Compound 297rac] | 6.00 to 7.00 | 7.00 to 8.00 | 7.00 to 8.00 | − (− indicates a value of less than 10) |
| O=c1[nH]c(C2CCN(C3CCN(c4ccc(C5=NCCN5)cc4)CC3)C2)nc2ccccc12 (racemic) [Compound 307rac] | 6.00 to 7.00 | 7.00 to 8.00 | 7.00 to 8.00 | − (− indicates a value of less than 10) |
| CNC(=O)c1cnc(N2CCC(N3CCC(c4nc5ccccc5c(=O)[nH]4)C3)CC2)nc1 (racemic) [Compound 318rac] | 6.00 to 7.00 | 7.00 to 8.00 | 7.00 to 8.00 | + (+ indicates a value of 10 to less than 50) |
| CNC(=O)c1ccc(N2CCC(N3CCC(c4cc5ccccc5c(=O)[nH]4)C3)CC2)s1 (racemic) [Compound 319rac] | 5.00 to 6.00 | 5.00 to 6.00 | 5.00 to 6.00 | − (− indicates a value of less than 10) |
| CNC(=O)c1cnc(N2CCC(N3CCC(c4cc5ccccc5c(=O)[nH]4)C3)CC2)s1 (racemic) [Compound 320rac] | 5.00 to 6.00 | 6.00 to 7.00 | 6.00 to 7.00 | − (− indicates a value of less than 10) |
| Cc1cnc(-c2ccc(N3CCC(N4CCC(c5nc6ccccc6c(=O)[nH]5)C4)CC3)cn2)n1C (racemic) [Compound 321rac] | 6.00 to 7.00 | 6.00 to 7.00 | 6.00 to 7.00 | − (− indicates a value of less than 10) |
| CNC(=O)c1ccc(N2CCC(N3CC(c4cc5cccc(F)c5c(=O)[nH]4)CC3=O)CC2)cn1 (racemic) [Compound 362rac] | 5.00 to 6.00 | > 8.00 | > 8.00 | +++ (+++ indicate a value of at least 100) |

The next lines start with results.

| pKd [1] | pKd [2] | pIC50 [3] | SMILES | Selectivity [2] |
| --- | --- | --- | --- | --- |
| 6.00 to 7.00 | > 8.00 | > 8.00 | CNC(=O)c1ccc(N2CCC(N3CCC(c4cc5c(c(=O)[nH]4)CCCN5)C3)CC2)cn1 (racemic) [Compound 233rac] | +++ (+++ indicate a value of at least 100) |
| 6.00 to 7.00 | > 8.00 | > 8.00 | CNC(=O)c1ncc(N2CCC(N3CCC(c4cc5cccc(F)c5c(=O)[nH]4)C3)CC2)cn1 (racemic) [Compound 234rac] | +++ (+++ indicate a value of at least 100) |
| 7.00 to 8.00 | > 8.00 | > 8.00 | CNC(=O)c1ccc(N2CCC(N3CCC(c4[nH]c(=O)c5ccccc5c4C)C3)CC2)cn1 (racemic) [Compound 237rac] | ++ (++ indicates a value of 50 to less than 100) |
| < 5.00 | 7.00 to 8.00 | 7.00 to 8.00 | CNC(=O)c1ccc(N2CCC(N3CCC(c4ccc(CC(F)(F)F)c(=O)[nH]4)C3)CC2)cn1 (racemic) [Compound 243rac] | ++ (++ indicates a value of 50 to less than 100) |
| > 8.00 | > 8.00 | > 8.00 | CNC(=O)c1ccc(N2CCC(N3CCC(c4cc5c(c(C(F)(F)F)nn5C)c(=O)[nH]4)C3)CC2)cn1 (racemic) [Compound 244rac] | − (− indicates a value of less than 10) |
| 5.00 to 6.00 | > 8.00 | > 8.00 | CCc1ccc(C2CCN(C3CCN(c4cnc(C(=O)NC)cc4F)CC3)C2)[nH]c1=O (racemic) [Compound 257rac] | +++ (+++ indicate a value of at least 100) |
| 6.00 to 7.00 | > 8.00 | > 8.00 | CNC(=O)c1ccc(N2CCC(N3CCC(c4cc5cccc(O)c5c(=O)[nH]4)C3)CC2)cn1 (racemic) [Compound 271rac] | +++ (+++ indicate a value of at least 100) |
| < 5.00 | 7.00 to 8.00 | 7.00 to 8.00 | CCc1ccc(C2CCN(C3CCN(c4cnc(C(=O)NC)nc4C(F)(F)F)CC3)C2)[nH]c1=O (racemic) [Compound 278rac] | +++ (+++ indicate a value of at least 100) |
| < 5.00 | 7.00 to 8.00 | 7.00 to 8.00 | CNC(=O)c1ccc(N2CCC(N3CCC(c4ccc(CCO)c(=O)[nH]4)C3)CC2)cn1 (racemic) [Compound 286rac] | +++ (+++ indicate a value of at least 100) |
| 5.00 to 6.00 | 7.00 to 8.00 | 7.00 to 8.00 | CNC(=O)c1ccc(N2CCC(N3CCC(c4nc5c(C(F)(F)F)cn(C)c5c(=O)[nH]4)C3)CC2)cn1 (racemic) [Compound 288rac] | +++ (+++ indicate a value of at least 100) |
| < 5.00 | 6.00 to 7.00 | 6.00 to 7.00 | CNC(=O)c1ccc(N2CCC(N3CCC(c4nc5c(c(=O)[nH]4)CN(C)C5)C3)CC2)cn1 (racemic) [Compound 294rac] | − (− indicates a value of less than 10) |
| 5.00 to 6.00 | > 8.00 | > 8.00 | CNC(=O)c1ccc(N2CCC(N3CCC(c4cc5c(c(=O)[nH]4)CCC(=O)N5C)C3)CC2)cn1 (racemic) [Compound 325rac] | +++ (+++ indicate a value of at least 100) |
| 5.00 to 6.00 | 7.00 to 8.00 | > 8.00 | CNC(=O)c1ccc(N2CCC(N3CCC(c4cc5cc(OC)ccc5c(=O)[nH]4)C3)CC2)cn1 (racemic) [Compound 334rac] | ++ (++ indicates a value of 50 to less than 100) |
| < 5.00 | 6.00 to 7.00 | 6.00 to 7.00 | CNC(=O)c1ccc(N2CCC(N3CCC(c4nc5ncncc5c(=O)[nH]4)C3)CC2)cn1 (racemic) [Compound 335rac] | + (+ indicates a value of 10 to less than 50) |
| 7.00 to 8.00 | > 8.00 | > 8.00 | CNC(=O)c1ccc(N2CCC(N3CCC(c4cc5c(c(=O)[nH]4)CCCC5)C3)CC2)cn1 (racemic) [Compound 336rac] | ++ (++ indicates a value of 50 to less than 100) |
| 5.00 to 6.00 | > 8.00 | > 8.00 | CNC(=O)c1ccc(N2CCC(N3CCC(c4ccc(CC(F)F)c(=O)[nH]4)C3)CC2)cn1 (racemic) [Compound 391rac] | +++ (+++ indicate a value of at least 100) |
| < 5.00 | 6.00 to 7.00 | 6.00 to 7.00 | CNC(=O)c1ccc(N2CCC(N3CCC(c4cc5c(C(F)(F)F)nn(C)c5c(=O)[nH]4)C3)CC2)cn1 (racemic) [Compound 392rac] | + (+ indicates a value of 10 to less than 50) |
